{"source": "paper PMC4139355", "about": "(PLoS ONE, 2014)", "key": {"AZ-GR cells": {"test_system": "AZ-GR cells", "experiment": "MTT cytotoxicity test in AZ-GR cells", "procedure": "(§1) A stably transfected gene reporter cell line AZ-GR was used for assessment of GR transcriptional activity. A transiently transfected LS174T human colon adenocarcinoma cells were used for assessment of PXR transcriptional activity. […] The reporter plasmid was transiently transfected to LS174T cells by lipofection (FuGENE 6) with 300 ng/well of p3A4-luc reporter in 24-well plates. Cells were incubated for 24 h with tested compounds and/or vehicle (DMSO; 0.1% v/v), in the presence or absence of RIF (10 µM; LS174T cells) or DEX (100 nM; AZ-GR cells). After the treatments, cells were lysed and luciferase activity was measured. In parallel, cell viability was determined by conventional MTT test.\n(§2) Model activator of GR was dexamethasone (DEX; 0.1 µM). Treatments were performed in triplicates. Upper panels: MTT test was performed and absorbance was measured at 540 nm. The data are the mean from experiments from three consecutive passages of cells and are expressed as a percentage of viability of control cells. The values of IC50 were calculated and are indicated in a figure. […] The data are the mean from experiments from four consecutive passages of cells and are expressed as a percentage of maximal induction attained by RIF. […] The data are the mean from experiments from four consecutive passages of cells and are expressed as a fold induction of luciferase activity over control cells."}, "LS174T cells": {"test_system": "LS174T cells", "experiment": "MTT cytotoxicity test in LS174T cells", "conditions": "for viability of LS174T cells (in words): MTT, 24 h, LAN up to 100 µM, OME up to 250 µM", "procedure": "as §1\n(§3) Gene reporter assays were performed in two different experimental layouts.\nas §2, with “Treatments” for “Model activator of GR was dexamethasone (DEX; 0.1 µM). Treatments”"}, "[1]": {"molecular_target": "T1, glucocorticoid receptor GR (Homo sapiens, UniProt P04150)", "T1 sequence (P04150 1-777)": "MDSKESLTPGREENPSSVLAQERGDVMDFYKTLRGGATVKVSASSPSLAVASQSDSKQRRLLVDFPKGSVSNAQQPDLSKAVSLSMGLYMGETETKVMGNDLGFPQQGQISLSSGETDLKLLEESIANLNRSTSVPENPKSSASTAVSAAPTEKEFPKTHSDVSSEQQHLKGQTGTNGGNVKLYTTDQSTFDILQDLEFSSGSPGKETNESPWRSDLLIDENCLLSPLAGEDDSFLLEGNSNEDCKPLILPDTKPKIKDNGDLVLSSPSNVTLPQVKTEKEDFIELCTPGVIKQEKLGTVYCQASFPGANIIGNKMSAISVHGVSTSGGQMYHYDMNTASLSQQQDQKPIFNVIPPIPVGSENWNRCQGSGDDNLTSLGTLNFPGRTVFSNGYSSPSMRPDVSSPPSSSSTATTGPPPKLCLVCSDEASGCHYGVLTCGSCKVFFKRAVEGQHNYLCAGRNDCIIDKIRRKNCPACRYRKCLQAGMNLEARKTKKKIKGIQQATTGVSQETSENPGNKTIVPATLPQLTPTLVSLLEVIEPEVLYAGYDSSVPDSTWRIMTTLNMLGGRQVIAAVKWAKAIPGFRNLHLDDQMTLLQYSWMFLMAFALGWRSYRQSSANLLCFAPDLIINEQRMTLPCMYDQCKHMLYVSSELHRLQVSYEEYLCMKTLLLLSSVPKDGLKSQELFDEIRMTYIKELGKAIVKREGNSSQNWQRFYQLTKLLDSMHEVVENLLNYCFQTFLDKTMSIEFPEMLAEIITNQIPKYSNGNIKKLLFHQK", "conditions": "AZ-GR cells, 24 h, agonist mode", "procedure": "as §1, §2"}, "[2]": {"test_system": "CYP3A4 protein in HepG2 cells", "experiment": "CYP3A4 protein expression (Western blot) in HepG2 cells", "conditions": "48 h", "procedure": "Total protein extracts were prepared as described elsewhere. SDS–PAGE gels (10%) were run on a BioRad apparatus according to the general procedure followed by the protein transfer onto PVDF membrane. The membrane was saturated with 5% non-fat dried milk for 1 h at room temperature. […] Chemiluminescent detection was performed using horseradish peroxidase-conjugated secondary antibodies (Santa Cruz Biotechnology) and Western blotting Luminol kit (Santa Cruz Biotechnology). The density of bands was measured by densitometry.\nDensity of bands was quantified by densitometry."}, "[3]": {"test_system": "CYP3A4-mediated luciferase activity in HepG2 cells", "design": "method as in PMID 12235278, PMID 20832446", "conditions": "HepG2 cells reporter gene assay; cited from earlier work"}, "[4]": {"test_system": "CYP3A4 mRNA in primary human hepatocytes", "design": "method as in PMID 12695340", "conditions": "100 µM–200 µM OME; cited from earlier work"}, "[5]": {"molecular_target": "T1, glucocorticoid receptor GR", "experiment": "GR gene reporter assay in AZ-GR cells, antagonist mode with dexamethasone", "type": "cell-based", "conditions": "in the presence of DEX 0.1 µM, 24 h, read-out: GR activation, antagonist mode IC50", "procedure": "as §1, §2"}, "[6]": {"experiment": "MTT cytotoxicity test in AZ-GR cells", "conditions": "human, AZ-GR cells (stably transfected GR gene reporter cell line), cytotoxicity in AZ-GR cells IC50, MTT, 24 h", "procedure": "as §1, §2"}, "[7]": {"experiment": "MTT cytotoxicity test in LS174T cells", "conditions": "human, LS174T cells", "procedure": "as §1, §3\nas §2, with “Treatments” for “Model activator of GR was dexamethasone (DEX; 0.1 µM). Treatments”"}, "pregnane X receptor PXR": {"molecular_target": "T2, pregnane X receptor PXR (Homo sapiens, UniProt O75469)", "T2 sequence (O75469 1-434)": "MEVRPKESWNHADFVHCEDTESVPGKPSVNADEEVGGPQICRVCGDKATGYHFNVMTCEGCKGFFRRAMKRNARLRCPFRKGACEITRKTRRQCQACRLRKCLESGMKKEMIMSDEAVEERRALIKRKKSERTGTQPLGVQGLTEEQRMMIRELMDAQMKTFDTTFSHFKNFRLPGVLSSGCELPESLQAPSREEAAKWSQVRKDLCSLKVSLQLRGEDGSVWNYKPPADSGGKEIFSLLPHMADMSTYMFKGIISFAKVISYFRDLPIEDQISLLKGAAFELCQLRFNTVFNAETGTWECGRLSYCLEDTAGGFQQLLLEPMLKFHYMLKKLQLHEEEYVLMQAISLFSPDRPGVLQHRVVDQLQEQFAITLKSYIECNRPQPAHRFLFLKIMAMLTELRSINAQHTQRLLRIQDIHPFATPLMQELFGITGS", "experiment": "PXR gene reporter assay (p3A4-luc in LS174T cells), agonist mode", "procedure": "as §1, §3\nas §2, with “Treatments” for “Model activator of GR was dexamethasone (DEX; 0.1 µM). Treatments”"}}, "note": "Like-named read-outs stand apart in the source and are kept apart here."}
{"smiles": "Cc1c(OCC(F)(F)F)ccnc1C[S+]([O-])c1nc2ccccc2[nH]1", "note": "(racemic) [rac-LAN, rac-lansoprazole]", "values": [{"measurement": "IC50", "setting": "AZ-GR cells", "value": "200 ± 19.5", "unit": "µM"}, {"measurement": "IC50", "setting": "LS174T cells", "value": "> 100", "unit": "µM"}]}
{"smiles": "COc1ccc2[nH]c([S+]([O-])Cc3ncc(C)c(OC)c3C)nc2c1", "note": "(racemic) [rac-OME, rac-omeprazole]", "values": [{"measurement": "IC50", "setting": "AZ-GR cells", "value": "> 250", "unit": "µM"}, {"measurement": "IC50", "setting": "LS174T cells", "value": "> 250", "unit": "µM"}]}
{"smiles": "Cc1c(OCC(F)(F)F)ccnc1C[S+]([O-])c1nc2ccccc2[nH]1", "note": "(stereo not drawn) [LAN, lansoprazole]", "values": [{"measurement": "effect on basal activity of GR (in words)", "setting": "[1]", "value": "weak effects on basal activity of GR"}, {"measurement": "viability of LS174T cells (in words)", "setting": "LS174T cells", "value": "did not observe significant decline in viability"}, {"measurement": "induction of CYP3A4 protein (in words)", "setting": "[2]", "value": "induced CYP3A4 protein"}]}
{"smiles": "COc1ccc2[nH]c([S+]([O-])Cc3ncc(C)c(OC)c3C)nc2c1", "note": "(stereo not drawn) [OME, omeprazole]", "values": [{"measurement": "induction of CYP3A4-mediated luciferase activity (in words)", "setting": "[3]", "value": "showed an induction of CYP3A4-mediated luciferase activity"}, {"measurement": "CYP3A4 mRNA expression induction", "setting": "[4]", "value": 4, "unit": "fold"}, {"measurement": "viability of LS174T cells (in words)", "setting": "LS174T cells", "value": "did not observe significant decline in viability"}]}
{"smiles": "Cc1c(OCC(F)(F)F)ccnc1C[S@@+]([O-])c1nc2ccccc2[nH]1", "note": "[R-LAN, R-lansoprazole]", "values": [{"measurement": "IC50", "setting": "[5]", "value": "~100", "unit": "µM"}, {"measurement": "IC50 at 24 h", "setting": "[6]", "value": "184 ± 2.9", "unit": "µM"}, {"measurement": "IC50 at 24 h", "setting": "[7]", "value": "> 100", "unit": "µM"}]}
{"smiles": "COc1ccc2nc([S@+]([O-])Cc3ncc(C)c(OC)c3C)[nH]c2c1", "note": "[R-OME, R-omeprazole]", "values": [{"measurement": "IC50", "setting": "AZ-GR cells", "value": "> 250", "unit": "µM"}, {"measurement": "IC50", "setting": "LS174T cells", "value": "> 250", "unit": "µM"}, {"measurement": "PXR activation, agonist mode (in words)", "setting": "pregnane X receptor PXR; 24 h, LS174T cells with p3A4-luc", "value": "strongly activated PXR in concentrations 100 µM and 250 µM"}, {"measurement": "EC50", "setting": "pregnane X receptor PXR; read-out: PXR activation, agonist mode EC50, 24 h, LS174T cells with p3A4-luc, absence of RIF", "value": "25.3 ± 3.1", "unit": "µM"}]}
{"smiles": "Cc1c(OCC(F)(F)F)ccnc1C[S@+]([O-])c1nc2ccccc2[nH]1", "note": "[S-LAN, S-lansoprazole]", "values": [{"measurement": "IC50", "setting": "AZ-GR cells", "value": "200 ± 6.5", "unit": "µM"}, {"measurement": "IC50", "setting": "LS174T cells", "value": "> 100", "unit": "µM"}, {"measurement": "induction of CYP3A4 protein (in words)", "setting": "[2]", "value": "strongest effects"}]}
{"smiles": "COc1ccc2nc([S@@+]([O-])Cc3ncc(C)c(OC)c3C)[nH]c2c1", "note": "[S-OME, S-omeprazole]", "values": [{"measurement": "IC50 at 24 h", "setting": "[6]", "value": 214, "unit": "µM"}, {"measurement": "IC50 at 24 h", "setting": "[7]", "value": "> 250", "unit": "µM"}, {"measurement": "EC50", "setting": "pregnane X receptor PXR", "value": "2 ± 0.6", "unit": "µM"}, {"measurement": "PXR activation, agonist mode (in words)", "setting": "pregnane X receptor PXR; human, 24 h", "value": "activated PXR in concentrations 10 µM and 100 µM with drop of activation at 250 µM"}]}
